Results taken from patent US20060069132A1, “Azolecarboxamide herbicides” (priority 2004, published 2006).
Read-outs that look alike come from different tables or passages of the source.

Columns and labels:
barnyardgrass = assay: Test C flooded paddy test; assay type: in vivo, Echinochloa crus-galli; conditions: for Plant response rating, Barnyardgrass / pest or weed control at 500 g/ha: 500 g ai/ha; for pest or weed control at 62 g/ha / pest or weed control at 125 g/ha / pest or weed control at 250 g/ha / pest or weed control at 500 g/ha: Echinochloa crus-galli
How it was run: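 Visual rating, 0 (no effect) to 100 (complete control), vs. controls at 12–14 d in greenhouse. Postemergence: 1–4-leaf plants, 2–18 cm. Paddy: flooded, barnyardgrass at 2-leaf stage.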

large crabgrass = assay: Test A pre-/postemergence herbicide test; assay type: in vivo, Digitaria sanguinalis; conditions: for pest or weed control at 500 g/ha / pest or weed control at 2000 g/ha: Digitaria sanguinalis, 240 h
How it was run: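 Both application timings were run together: directed soil spray over freshly planted seeds in sandy loam, and runoff spray onto 2–10 cm seedlings. Evaluation after ~10 days in greenhouse used a 0–100 visual scale versus untreated controls.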

giant foxtail = assay: Test C pre-/postemergence herbicide test; assay type: in vivo, Setaria faberi
Description: (§1) Seeds of plant species selected from bermudagrass (Cynodon dactylon (L.) Pers.), Surinam grass (Urochloa decumbens (Staph) R. D. Webster, previously named Brachiaria decumbens Stapf), cocklebur (Xanthium strumarium L.), corn (Zea mays L.), large crabgrass (Digitaria sanguinalis (L.) Scop.), woolly cupgrass (Eriochloa villosa (Thunb.) Kunth), giant foxtail (Setaria faberi Herrm.), goosegrass (Eleusine indica (L.) Gaertn.), johnsongrass (Sorghum halepense (L.) Pers.), kochia (Kochia scoparia (L.) Schrad.), lambsquarters (Chenopodium album L.), morningglory (Ipomoea coccinea L.), eastern black nightshade (Solanum ptycanthum Dunal), yellow nutsedge (Cyperus esculentus L.), pigweed (Amaranthus retroflexus L.), common ragweed (Ambrosia elatior L.), soybean (Glycine max (L.) Merr.), common (oilseed) sunflower (Helianthus annuus L.) and velvetleaf (Abutilon theophrasti Medik.) were planted and treated preemergence with test chemicals formulated in a non-phytotoxic solvent mixture which included a surfactant.
(§2) At the same time, plants selected from these crop and weed species and also winter barley (Hordeum vulgare L.), blackgrass (Alopecurus myosuroides Huds.), canarygrass (Phalaris minor Retz.), chickweed (Stellaria media (L.) Vill.), downy bromegrass (Bromus tectorum L.), green foxtail (Setaria viridis (L.) Beauv.), Italian ryegrass (Lolium multiflorum Lam.), wheat (Triticum aestivum L.), wild oat (Avenafatua L.) and windgrass (Apera spica-venti (L.) Beauv.) were treated with postemergence applications of some of the test chemicals formulated in the same manner. Plants ranged in height from 2 to 18 cm (1- to 4-leaf stage) for postemergence treatments. Plant species in the flooded paddy test consisted of rice (Oryza sativa), smallflower umbrella sedge (Cyperus difformis L.), ducksalad (Heteranthera limosa (Sw.) Willd.) and barnyardgrass (Echinochloa crus-galli (L.) Beauv.) grown to the 2-leaf stage for testing. Treated plants and controls were maintained in a greenhouse for 12 to 14 days, after which time all species were compared to controls and visually evaluated. Plant response ratings, summarized in Table C, are based on a scale of 0 to 100 where 0 is no effect and 100 is complete control. A dash (-) response means no test result.

woolly cupgrass = assay: Test C pre-/postemergence herbicide test; assay type: in vivo, Eriochloa villosa
Description: as §1, §2

morningglory = assay: Test C pre-/postemergence herbicide test; assay type: in vivo, Ipomoea coccinea; parameters: key to Plant response rating, Morningglory: 0 = no effect, 100 = complete control
Description: as §1, §2

pigweed = assay: Test C pre-/postemergence herbicide test; assay type: in vivo, Amaranthus retroflexus
Description: as §1, §2

kochia = assay: Test C pre-/postemergence herbicide test; assay type: in vivo, Kochia scoparia; conditions: scale 0 to 100; for Plant response rating, Kochia: postemergence
Description: as §1, §2

rice = assay: Test B pre-/postemergence herbicide test; assay type: in vivo, Oryza sativa; conditions: 0 = no effect, 100 = complete control, preemergence
How it was run: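 Greenhouse pot assay with simultaneous preemergence (treated seed) and postemergence (2–18 cm seedlings) applications of surfactant-containing, non-phytotoxic solvent formulations. Response scored visually 13–15 days later on a 0–100 scale, 100 meaning complete control.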

[1] = 62 g ai/ha, scale 0 to 100 (0 no effect, 100 complete control)
[2] = 125 g ai/ha, scale 0 to 100 (0 no effect, 100 complete control)
[3] = 250 g ai/ha, scale of 0 to 100, 0 is no effect, 100 is complete control
[4] = visual rating after 12 to 14 days, scale 0 to 100 (0 no effect, 100 complete control)
[5] = Postemergence, 500 g ai/ha, 0 to 100 scale, 0 no effect, 100 complete control
[6] = Postemergence, 2000 g ai/ha, 0 to 100 scale, 0 no effect, 100 complete control
[7] = Preemergence, 500 g ai/ha, visual rating, 0 to 100 scale (0 no effect, 100 complete control)
[8] = 125 g ai/ha, scale of 0 to 100, 0 is no effect, 100 is complete control
[9] = Postemergence, 500 g ai/ha, scale 0 to 100
[10] = Postemergence, 250 g ai/ha, scale 0 to 100, 0 no effect, 100 complete control
[11] = postemergence, 125 g ai/ha, scale 0 to 100
[12] = postemergence, 62 g ai/ha, scale 0 to 100
[13] = post-emergence, Postemergence, 2000 g ai/ha, 0 to 100 scale, 0 no effect, 100 complete control, read-out: Plant response rating, Crabgrass, Large
[14] = pre-emergence, Preemergence, 500 g ai/ha, visual rating, 0 to 100 scale (0 no effect, 100 complete control), read-out: Crabgrass, Large plant response rating
[15] = 62 g ai/ha, scale 0 to 100 (0 no effect, 100 complete control), read-out: Barnyardgrass plant response rating
[16] = visual rating after 12 to 14 days, scale 0 to 100 (0 no effect, 100 complete control), read-out: Plant response rating, Barnyardgrass

## C#CCOc1cccc(NC(=O)c2cc(C(C)(C)C)nn2CC)c1 [Compound 411]
barnyardgrass; [1]
  Barnyardgrass plant response rating: 15
barnyardgrass; [2]
  Barnyardgrass plant response rating: 25
barnyardgrass; [3]
  Barnyardgrass plant response rating: 40
barnyardgrass; [4]
  Plant response rating, Barnyardgrass: 45

## CCOC(=O)c1cccc(NC(=O)c2cc(C(C)(C)C)nn2CCF)c1 [Compound 79]
Large crabgrass; [5]
  Plant response rating, Crabgrass, Large: 20
Large crabgrass; [6]
  Plant response rating, Crabgrass, Large: 55
Large crabgrass; [7]
  Crabgrass, Large plant response rating: 50
Large crabgrass; Preemergence, 2000 g ai/ha, 0 to 100 scale, 0 no effect, 100 complete control
  Crabgrass, Large plant response rating: 55
barnyardgrass; [1]
  Barnyardgrass plant response rating: 10
barnyardgrass; [8]
  Barnyardgrass plant response rating: 25
barnyardgrass; [3]
  Barnyardgrass plant response rating: 25
barnyardgrass; [4]
  Plant response rating, Barnyardgrass: 80

## C=CCOc1cccc(NC(=O)c2cc(C(C)(C)C)nn2CC)c1 [Compound 412]
barnyardgrass; [1]
  Barnyardgrass plant response rating: 0
barnyardgrass; [2]
  Barnyardgrass plant response rating: 20
barnyardgrass; [3]
  Barnyardgrass plant response rating: 35
barnyardgrass; [4]
  Plant response rating, Barnyardgrass: 45

## C#CCNC(=O)c1cccc(NC(=O)c2nn(C(C)(C)C)nc2CC)c1 [Compound 380]
barnyardgrass; [1]
  Barnyardgrass plant response rating: 35
barnyardgrass; [2]
  Barnyardgrass plant response rating: 45
barnyardgrass; [3]
  Barnyardgrass plant response rating: 65
barnyardgrass; [4]
  Plant response rating, Barnyardgrass: 70

## CC(=NO)c1cccc(NC(=O)c2cc(C(C)(C)C)nn2CC(F)(F)F)c1 [Compound 112]
Large crabgrass; [5]
  Crabgrass, Large plant response rating: 25
Large crabgrass; [6]
  Plant response rating, Crabgrass, Large: 30
Large crabgrass; [7]
  Crabgrass, Large plant response rating: 45
Large crabgrass; Preemergence, 2000 g ai/ha, visual rating, 0 to 100 scale (0 no effect, 100 complete control)
  Crabgrass, Large plant response rating: 55
barnyardgrass; [1]
  Barnyardgrass plant response rating: 0
barnyardgrass; [8]
  Barnyardgrass plant response rating: 0
barnyardgrass; [3]
  Barnyardgrass plant response rating: 10
barnyardgrass; [4]
  Plant response rating, Barnyardgrass: 30
Giant foxtail; [9]
  Foxtail, Giant plant response rating: 50
Giant foxtail; [10]
  Plant response rating, Foxtail, Giant: 50
Giant foxtail; [11]
  Plant response rating, Foxtail, Giant: 50
Giant foxtail; [12]
  Plant response rating, Foxtail, Giant: 30
Woolly cupgrass; [9]
  Cupgrass, Woolly plant response rating: 70
Woolly cupgrass; [10]
  Plant response rating, Cupgrass, Woolly: 60
Woolly cupgrass; [11]
  Plant response rating, Cupgrass, Woolly: 30
Woolly cupgrass; [12]
  Plant response rating, Cupgrass, Woolly: 0
morningglory; [9]
  Morningglory plant response rating: 100
morningglory; [10]
  Plant response rating, Morningglory: 70
morningglory; [11]
  Plant response rating, Morningglory: 20
morningglory; [12]
  Plant response rating, Morningglory: 0
pigweed; [9]
  Pigweed plant response rating: 100
pigweed; [10]
  Plant response rating, Pigweed: 100
pigweed; [11]
  Plant response rating, Pigweed: 60
pigweed; [12]
  Plant response rating, Pigweed: 10
kochia; Postemergence, 500 g ai/ha
  Kochia plant response rating: 80
kochia; 125 g ai/ha
  Plant response rating, Kochia: 20
kochia; 62 g ai/ha
  Plant response rating, Kochia: 0

## CCn1nc(C(C)(C)C)cc1C(=O)Nc1cccc(C(=O)NCC(F)(F)F)c1 [Compound 43, 3-(1,1-dimethylethyl)-1-ethyl-N-[3-[[(2,2,2-trifluoroethyl)amino]carbonyl]-phenyl]-1H-pyrazole-5-carboxamide]
Large crabgrass; post-emergence, Postemergence, 500 g ai/ha, 0 to 100 scale, 0 no effect, 100 complete control, read-out: Plant response rating, Crabgrass, Large
  pest or weed control at 500 g/ha: 65%
Large crabgrass; [13]
  pest or weed control at 2000 g/ha: 90%
Large crabgrass; [14]
  pest or weed control at 500 g/ha: 75%
Large crabgrass; pre-emergence, Preemergence, 2000 g ai/ha, 0 to 100 scale, 0 no effect, 100 complete control, read-out: Crabgrass, Large plant response rating
  pest or weed control at 2000 g/ha: 90%
barnyardgrass; [15]
  pest or weed control at 62 g/ha: 0%
barnyardgrass; 125 g ai/ha, scale of 0 to 100, 0 is no effect, 100 is complete control, read-out: Barnyardgrass plant response rating
  pest or weed control at 125 g/ha: 0%
barnyardgrass; 250 g ai/ha, visual rating after 12 to 14 days, scale 0 to 100 (0 no effect, 100 complete control), read-out: Plant response rating, Barnyardgrass
  pest or weed control at 250 g/ha: 40%
barnyardgrass; [16]
  pest or weed control at 500 g/ha: 50%

## CCc1nn(C(C)C)nc1C(=O)Nc1cccc(C(=O)N(C)C)c1 [Compound 358, N-[3-[(dimethylamino)carbonyl)phenyl]-5-ethyl-2-(1-methylethyl)-2H-1,2,3-triazole-4-carboxamide]
barnyardgrass; [15]
  pest or weed control at 62 g/ha: 0%
barnyardgrass; 125 g ai/ha, scale 0 to 100 (0 no effect, 100 complete control), read-out: Barnyardgrass plant response rating
  pest or weed control at 125 g/ha: 60%
barnyardgrass; 250 g ai/ha, scale of 0 to 100, 0 is no effect, 100 is complete control, read-out: Barnyardgrass plant response rating
  pest or weed control at 250 g/ha: 75%
barnyardgrass; [16]
  pest or weed control at 500 g/ha: 85%

## CCn1nc(C(C)(C)C)cc1C(=O)Nc1cccc(C(=O)OC)n1 [Compound 143, methyl 6-[[[3-(1,1-dimethylethyl)-1-ethyl-1H-pyrazol-5-yl]carbonyl]amino]-2-pyridinecarboxylate]
Large crabgrass; post-emergence, Postemergence, 500 g ai/ha, 0 to 100 scale, 0 no effect, 100 complete control, read-out: Crabgrass, Large plant response rating
  pest or weed control at 500 g/ha: 20%
Large crabgrass; [13]
  pest or weed control at 2000 g/ha: 30%
Large crabgrass; [14]
  pest or weed control at 500 g/ha: 0%
Large crabgrass; pre-emergence, Preemergence, 2000 g ai/ha, visual rating, 0 to 100 scale (0 no effect, 100 complete control), read-out: Crabgrass, Large plant response rating
  pest or weed control at 2000 g/ha: 15%

## CCn1nc(C(C)(C)C)cc1C(=O)Nc1cc(C(=O)OC(C)C)c(F)cc1F [Compound 248]
rice; 125 g ai/ha
  Rice plant response rating (0 to 100 scale): 0
rice; 500 g ai/ha, visual rating
  Plant response rating, Rice: 0
